Patent US11505523B2, “HDAC8 inhibitors for treating cancer” (City of Hope, priority 2013, dated 2022)

Key:
[1] = biological target: HDAC4 (Homo sapiens (Human), UniProt P56524); assay: Inhibition of purified HDAC4; details: read-out: HDAC 4 IC50; class II
[2] = system: HeLa nuclear HDACs; assay: Inhibition of HeLa nuclear HDACs (HeLa nuclear extract, mainly HDACs1-3); type: biochemical; details: read-out: HeLa HDAC IC50
[3] = biological target: HDAC11 (Homo sapiens (Human), UniProt Q96DB2); assay: Inhibition of purified HDAC11; details: read-out: HDAC 11 IC50; class IV
[4] = biological target: HDAC2 (Homo sapiens (Human), UniProt Q92769); assay: Inhibition of purified HDAC2; details: read-out: HDAC 2 IC50; class I
[5] = biological target: HDAC6 (Homo sapiens (Human), UniProt Q9UBN7); assay: Inhibition of purified HDAC6; details: read-out: HDAC 6 IC50; class II
[6] = system: H1299 cells; assay: Cytotoxicity / anti-proliferative activity in H1299 lung cancer cells; details: read-out: Cytotoxicity IC50 H1299; mean SD of three determinations
[7] = biological target: HDAC1 (Homo sapiens (Human), UniProt Q13547); assay: Inhibition of purified HDAC1; type: biochemical; details: class I; read-out: HDAC 1 IC50
[8] = system: CL1-5 cells; assay: Cytotoxicity / anti-proliferative activity in CL1-5 lung cancer cells; details: read-out: Cytotoxicity IC50 Cl1-5; mean SD of three determinations
[9] = biological target: HDAC8 (Homo sapiens (Human), UniProt Q9BY41); assay: Inhibition of HDAC8; type: biochemical
[10] = system: Cl1-1 cells; assay: Cytotoxicity / anti-proliferative activity in CL1-1 lung cancer cells; details: read-out: Cytotoxicity IC50 Cl1-1; mean SD of three determinations
[11] = biological target: HDAC3 (Homo sapiens (Human), UniProt O15379); assay: Inhibition of purified HDAC3; details: read-out: HDAC 3 IC50; class I
[12] = biological target: HDAC10 (Homo sapiens (Human), UniProt Q969S8); assay: Inhibition of purified HDAC10; details: read-out: HDAC 10 IC50; class II
[13] = system: Ac-p53 (K379) in 32D-CM cells; assay: Western blot of Ac-p53 in CBFβ-SMMHC (CM)-expressing 32D cells; type: cell-based
Source text: Cells were lysed in RIPA buffer containing protease inhibitor cocktail (Roche) and MG132. Antibodies used for IP were conjugated with protein A/G beads using the antibody cross-linking kit (Pierce Biotechnology, Rockford, Ill.) following manufacturer's protocol. For Western blot, proteins were resolved in 10% SDS-PAGE. The antibodies used induced anti-FLAG (Sigma), anti-HDAC8, anti-CBFβ (Santa Cruz), anti-p53 (DO-1), anti-Ac-p53 (K379) (Cell Signaling), anti-p53 (Cell signaling) and anti-β-actin (Sigma). Horseradish peroxidase-conjugated anti-rabbit or anti-mouse secondary antibodies (Jackson ImmunoResearch, West Grove Pa.) were used, followed by detection using the SuperFemto kit (Pierce Biotechnology, Rockford, Ill.).
Class 1 HDACs, including HDAC1, HDAC2, and HDAC3, reportedly could inhibit p53 activity by deacetylating p53 [41-43]. […] To test this, we used lentivirus (pLKO. 1) mediated expression of 2 independent small-hairpin (sh)-RNA sequences against Hdac8 to specifically knock-down Hdac8 in 32D-CM cells. Cells were exposed to IR (3Gy) and analyzed for levels of p53 acetylation 6 h after.

[14] = system: p53 target genes in 32D-CM cells; assay: qRT-PCR of p53 target genes in 32D-CM cells; type: cell-based; details: 10 μM, 16 h

HDAC8, sequence (Q9BY41 whole entry): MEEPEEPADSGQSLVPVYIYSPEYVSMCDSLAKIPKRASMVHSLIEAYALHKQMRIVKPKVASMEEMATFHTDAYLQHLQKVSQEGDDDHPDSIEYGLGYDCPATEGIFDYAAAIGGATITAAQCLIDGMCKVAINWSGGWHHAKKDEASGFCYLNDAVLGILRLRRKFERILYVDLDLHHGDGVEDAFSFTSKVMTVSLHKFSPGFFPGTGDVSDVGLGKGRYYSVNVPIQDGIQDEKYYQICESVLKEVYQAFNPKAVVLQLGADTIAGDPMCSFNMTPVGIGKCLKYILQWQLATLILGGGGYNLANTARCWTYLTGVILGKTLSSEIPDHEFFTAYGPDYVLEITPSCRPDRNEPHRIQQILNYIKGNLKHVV
HDAC3, sequence (O15379 whole entry, looked up, species assumed): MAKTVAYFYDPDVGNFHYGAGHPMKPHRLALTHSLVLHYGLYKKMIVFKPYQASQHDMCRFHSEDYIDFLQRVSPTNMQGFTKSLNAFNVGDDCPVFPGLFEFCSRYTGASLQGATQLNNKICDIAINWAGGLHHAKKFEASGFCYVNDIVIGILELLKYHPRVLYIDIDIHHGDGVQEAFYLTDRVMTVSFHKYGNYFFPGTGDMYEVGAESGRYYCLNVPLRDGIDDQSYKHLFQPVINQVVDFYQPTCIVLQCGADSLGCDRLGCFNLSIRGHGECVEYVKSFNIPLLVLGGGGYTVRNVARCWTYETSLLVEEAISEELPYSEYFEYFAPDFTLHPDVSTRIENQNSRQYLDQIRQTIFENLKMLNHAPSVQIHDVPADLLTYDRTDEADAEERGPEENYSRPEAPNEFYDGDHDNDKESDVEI
HDAC3, sequence (Q9Y618 whole entry partner, looked up, species assumed): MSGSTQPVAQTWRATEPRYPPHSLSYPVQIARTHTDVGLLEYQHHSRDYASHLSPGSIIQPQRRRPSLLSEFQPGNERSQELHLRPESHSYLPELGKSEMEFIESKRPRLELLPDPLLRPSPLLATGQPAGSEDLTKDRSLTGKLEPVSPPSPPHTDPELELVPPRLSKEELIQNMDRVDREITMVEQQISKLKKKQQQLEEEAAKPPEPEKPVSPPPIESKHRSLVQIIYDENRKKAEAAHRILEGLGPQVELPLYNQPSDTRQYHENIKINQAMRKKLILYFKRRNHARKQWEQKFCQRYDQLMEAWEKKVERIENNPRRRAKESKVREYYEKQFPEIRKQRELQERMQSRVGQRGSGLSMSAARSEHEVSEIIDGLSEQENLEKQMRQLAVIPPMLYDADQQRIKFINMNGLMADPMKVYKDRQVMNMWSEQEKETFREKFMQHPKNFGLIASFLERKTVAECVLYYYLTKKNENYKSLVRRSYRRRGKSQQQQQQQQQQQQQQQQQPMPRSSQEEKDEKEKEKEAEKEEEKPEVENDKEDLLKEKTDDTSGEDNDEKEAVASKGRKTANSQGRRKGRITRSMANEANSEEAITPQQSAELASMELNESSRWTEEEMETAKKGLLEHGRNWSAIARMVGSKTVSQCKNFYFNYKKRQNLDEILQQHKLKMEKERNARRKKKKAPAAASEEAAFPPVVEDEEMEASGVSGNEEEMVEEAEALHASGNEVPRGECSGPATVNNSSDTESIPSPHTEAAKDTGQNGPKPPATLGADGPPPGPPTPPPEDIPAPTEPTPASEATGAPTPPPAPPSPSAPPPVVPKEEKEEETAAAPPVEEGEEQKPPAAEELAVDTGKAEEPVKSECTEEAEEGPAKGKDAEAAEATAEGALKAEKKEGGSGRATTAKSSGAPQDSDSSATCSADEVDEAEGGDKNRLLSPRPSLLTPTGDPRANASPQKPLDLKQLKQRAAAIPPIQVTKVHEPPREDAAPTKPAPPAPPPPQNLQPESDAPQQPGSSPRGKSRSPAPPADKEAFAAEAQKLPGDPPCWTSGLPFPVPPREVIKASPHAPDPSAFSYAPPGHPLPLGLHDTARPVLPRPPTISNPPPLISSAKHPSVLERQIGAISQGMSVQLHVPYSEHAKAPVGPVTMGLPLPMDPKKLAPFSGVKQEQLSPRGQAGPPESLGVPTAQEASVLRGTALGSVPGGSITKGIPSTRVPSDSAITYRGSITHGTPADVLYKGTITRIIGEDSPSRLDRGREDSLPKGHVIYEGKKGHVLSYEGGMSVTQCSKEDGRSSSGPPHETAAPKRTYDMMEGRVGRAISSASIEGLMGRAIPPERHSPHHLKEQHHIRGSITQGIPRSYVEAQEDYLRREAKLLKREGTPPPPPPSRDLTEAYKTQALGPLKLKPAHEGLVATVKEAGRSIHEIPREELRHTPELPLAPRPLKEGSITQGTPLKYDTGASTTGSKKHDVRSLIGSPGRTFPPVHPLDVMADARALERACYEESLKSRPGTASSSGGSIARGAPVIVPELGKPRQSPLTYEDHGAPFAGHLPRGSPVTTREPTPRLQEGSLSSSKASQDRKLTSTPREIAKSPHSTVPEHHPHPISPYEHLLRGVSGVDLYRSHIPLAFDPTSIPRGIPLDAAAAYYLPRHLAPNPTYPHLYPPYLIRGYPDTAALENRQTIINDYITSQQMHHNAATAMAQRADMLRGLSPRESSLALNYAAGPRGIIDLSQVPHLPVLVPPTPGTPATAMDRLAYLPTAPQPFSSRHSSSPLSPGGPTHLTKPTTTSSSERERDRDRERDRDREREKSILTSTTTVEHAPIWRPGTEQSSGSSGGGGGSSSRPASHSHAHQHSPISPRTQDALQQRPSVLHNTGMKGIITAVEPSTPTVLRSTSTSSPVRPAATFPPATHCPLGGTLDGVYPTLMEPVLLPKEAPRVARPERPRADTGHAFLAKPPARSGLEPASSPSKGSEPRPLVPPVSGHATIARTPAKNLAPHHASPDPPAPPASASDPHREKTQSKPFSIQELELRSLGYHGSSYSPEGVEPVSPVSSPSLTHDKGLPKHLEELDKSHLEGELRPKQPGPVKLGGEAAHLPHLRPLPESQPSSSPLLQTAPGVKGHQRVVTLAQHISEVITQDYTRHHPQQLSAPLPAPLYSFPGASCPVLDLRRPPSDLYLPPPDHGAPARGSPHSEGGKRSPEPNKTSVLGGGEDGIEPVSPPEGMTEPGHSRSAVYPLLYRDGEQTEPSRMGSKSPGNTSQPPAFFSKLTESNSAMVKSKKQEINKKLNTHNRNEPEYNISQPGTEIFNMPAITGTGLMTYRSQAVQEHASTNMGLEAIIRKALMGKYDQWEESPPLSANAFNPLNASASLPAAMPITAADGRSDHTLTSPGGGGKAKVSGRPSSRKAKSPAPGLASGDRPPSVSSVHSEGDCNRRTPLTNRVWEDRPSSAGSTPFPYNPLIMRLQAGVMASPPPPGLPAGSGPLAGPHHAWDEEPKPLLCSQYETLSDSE
HDAC6, sequence (Q9UBN7 whole entry, species assumed): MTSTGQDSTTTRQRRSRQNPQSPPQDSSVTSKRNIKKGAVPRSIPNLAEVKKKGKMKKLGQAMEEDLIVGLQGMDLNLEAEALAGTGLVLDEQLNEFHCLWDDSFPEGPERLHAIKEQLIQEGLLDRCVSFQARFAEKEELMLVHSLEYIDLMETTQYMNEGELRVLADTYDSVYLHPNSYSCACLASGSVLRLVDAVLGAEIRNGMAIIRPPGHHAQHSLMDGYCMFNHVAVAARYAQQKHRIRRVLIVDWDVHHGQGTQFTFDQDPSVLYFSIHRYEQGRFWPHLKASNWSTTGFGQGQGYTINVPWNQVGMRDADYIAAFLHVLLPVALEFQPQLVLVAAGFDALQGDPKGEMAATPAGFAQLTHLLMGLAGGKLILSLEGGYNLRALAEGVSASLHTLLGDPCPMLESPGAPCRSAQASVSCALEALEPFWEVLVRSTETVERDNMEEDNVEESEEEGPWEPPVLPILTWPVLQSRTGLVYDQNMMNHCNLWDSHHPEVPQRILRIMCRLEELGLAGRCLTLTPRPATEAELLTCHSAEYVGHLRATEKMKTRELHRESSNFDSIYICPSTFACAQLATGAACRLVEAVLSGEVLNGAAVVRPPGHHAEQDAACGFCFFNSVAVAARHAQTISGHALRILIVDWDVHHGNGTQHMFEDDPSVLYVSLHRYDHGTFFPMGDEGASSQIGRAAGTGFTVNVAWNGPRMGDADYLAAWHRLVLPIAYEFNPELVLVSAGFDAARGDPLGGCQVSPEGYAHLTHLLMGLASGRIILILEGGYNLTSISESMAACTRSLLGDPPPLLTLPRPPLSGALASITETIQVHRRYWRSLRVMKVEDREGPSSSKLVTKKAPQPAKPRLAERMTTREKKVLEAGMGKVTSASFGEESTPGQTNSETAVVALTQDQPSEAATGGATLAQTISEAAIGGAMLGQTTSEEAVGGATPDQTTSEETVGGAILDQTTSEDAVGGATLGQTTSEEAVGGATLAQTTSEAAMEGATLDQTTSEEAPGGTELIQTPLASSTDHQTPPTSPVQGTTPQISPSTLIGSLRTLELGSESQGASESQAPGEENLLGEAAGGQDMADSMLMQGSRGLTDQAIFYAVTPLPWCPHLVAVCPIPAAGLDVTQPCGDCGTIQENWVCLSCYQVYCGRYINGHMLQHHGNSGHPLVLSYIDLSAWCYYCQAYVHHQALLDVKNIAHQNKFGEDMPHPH
HDAC2, sequence (Q92769 whole entry, species assumed): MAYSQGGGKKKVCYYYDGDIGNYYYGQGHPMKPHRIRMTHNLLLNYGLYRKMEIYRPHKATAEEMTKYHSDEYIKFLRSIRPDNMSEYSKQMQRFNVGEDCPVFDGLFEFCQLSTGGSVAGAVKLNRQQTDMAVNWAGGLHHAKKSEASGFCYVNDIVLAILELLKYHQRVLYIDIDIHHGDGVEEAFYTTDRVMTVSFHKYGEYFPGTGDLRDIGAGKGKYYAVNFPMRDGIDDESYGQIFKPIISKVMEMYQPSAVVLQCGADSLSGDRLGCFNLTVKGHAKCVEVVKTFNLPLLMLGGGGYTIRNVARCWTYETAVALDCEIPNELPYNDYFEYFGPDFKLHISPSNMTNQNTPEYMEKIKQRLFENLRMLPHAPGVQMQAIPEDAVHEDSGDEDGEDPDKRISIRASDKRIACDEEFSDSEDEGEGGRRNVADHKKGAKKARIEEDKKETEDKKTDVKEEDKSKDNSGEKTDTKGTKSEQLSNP

| SMILES | IC50 [1] [nM] | IC50 [2] [nM] | IC50 [3] [nM] | IC50 [4] [nM] | IC50 [5] [nM] | IC50 [6] [nM] | IC50 [7] [nM] | IC50 [8] [nM] | fold more potent than 22a (HDAC8) [9] [fold] | fold more potent than PCI34051 for HDAC8 [9] | IC50 ([9]; mean SD of three determinations) [nM] | HDAC8 inhibitory activity compared with PCI34051 ([9]; result in words) | IC50 [10] [nM] | IC50 [11] [nM] | IC50 [12] [nM] | Ac-p53 level in CM-expressing cells ([13]; Western blot, 6 h) | Ac-p53 level, in combination with Nutlin-3 ([13]; compared to Nutlin-3 alone) | activation of p53 targets (Bax, Puma, p21, Gadd45b and LincRNA-p21) [14] |
| --- | --- | --- | --- | --- | --- | --- | --- | --- | --- | --- | --- | --- | --- | --- | --- | --- | --- | --- |
| COc1ccc(/C=C/C(=O)NO)c(-c2ccc(Br)cc2)c1 [Compound 22b, (E)-N-Hydroxy-4-methoxy-2-(4-bromophenyl)cinnamide] | > 20 | > 10000 | > 20 | > 20 | > 20 | > 10 | 4.5 ± 0.1 | > 10 | 13 | around ten | 5.7 ± 0.1 | superior to PCI34051 | > 10 | 4.8 ± 0.5 | > 20 | – | – | – |
| COc1ccc(Cn2ccc3ccc(C(=O)NO)cc32)cc1 [PCI34051, reference compound] | – | > 10000 | – | – | – | > 10 | – | > 10 | – | – | – | – | > 10 | – | – | remarkably increased Ac-p53 | enhanced Ac-p53 compared to Nutlin-3 alone | Variable levels of activation |
